Source: article PMC7782793, “Hydroxamic acid-modified peptide microarrays for profiling isozyme-selective interactions and inhibition of histone deacetylases” (Nature Communications, 2021)
Several values for one entry are separate records, joined by “and”; a condition that tells them apart may be missing. Identical values can stand only once. Marks after values point to notes of the source that are not given here. Non-standard residues stand in square brackets, D forms with d. Residues, ends and D or L forms follow the SMILES beside them. *: point of attachment. Asu = N[C@@H](CCCCCC(=O)O)C(=O)O; NHOH = ON*

What was measured:
HDAC1 [1] = target: T1, HDAC1 (Homo sapiens, UniProt Q13547); test: Recombinant HDAC µSPOT microarray binding assay;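 note: slides with spotted peptides incubated with six HDAC concentrations in HEPES buffer pH 7.4, spot intensities fitted by four-parameter logistic, EC50 as enzyme concentration giving half-maximal binding signal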
T1 construct: HDAC1 (full length, C-terminal His tag, C-terminal FLAG tag, BPS Bioscience, cat. #: 50051); FLAG (C); purchased BPS Bioscience 50051
T1 sequence (Q13547 whole entry): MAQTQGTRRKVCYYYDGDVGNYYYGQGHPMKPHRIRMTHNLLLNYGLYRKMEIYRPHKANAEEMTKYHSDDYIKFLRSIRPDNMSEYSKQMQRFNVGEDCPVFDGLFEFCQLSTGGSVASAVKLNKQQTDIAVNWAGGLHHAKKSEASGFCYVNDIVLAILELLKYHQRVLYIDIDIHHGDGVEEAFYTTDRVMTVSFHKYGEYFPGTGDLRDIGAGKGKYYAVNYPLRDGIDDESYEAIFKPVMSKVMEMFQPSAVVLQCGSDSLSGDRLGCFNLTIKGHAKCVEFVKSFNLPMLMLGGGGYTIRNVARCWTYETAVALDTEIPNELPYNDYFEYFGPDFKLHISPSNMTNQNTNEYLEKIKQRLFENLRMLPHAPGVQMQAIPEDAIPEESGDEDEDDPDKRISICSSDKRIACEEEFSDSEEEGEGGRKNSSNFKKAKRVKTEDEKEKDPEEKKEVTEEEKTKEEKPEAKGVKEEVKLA
Method: Experiments were performed twice, data were obtained with Array Analyze software (Active Motif), and data analysis and representation were performed with the GraphPad Prism 7 software. Outliers were curated manually and data were fitted to nonlinear regression [log(agonist) vs. response—variable slope (four parameters)]. […] Non-sigmoidal curves were denoted as not determined (N.D.) The pEC50 values were determined as the concentration of HDAC enzyme required for half-maximal binding signal.

HDAC6 = target: T2, HDAC6 (Homo sapiens, UniProt Q9UBN7); test: HDAC inhibition assay (fluorogenic, Ac-Leu-Gly-Lys(Ac)-AMC); assay type: biochemical; details: HDAC6, replicates
T2 construct: HDAC6 (full length, BPS Bioscience, cat. #: 50056); purchased BPS Bioscience 50056
T2 sequence (Q9UBN7 1-1215): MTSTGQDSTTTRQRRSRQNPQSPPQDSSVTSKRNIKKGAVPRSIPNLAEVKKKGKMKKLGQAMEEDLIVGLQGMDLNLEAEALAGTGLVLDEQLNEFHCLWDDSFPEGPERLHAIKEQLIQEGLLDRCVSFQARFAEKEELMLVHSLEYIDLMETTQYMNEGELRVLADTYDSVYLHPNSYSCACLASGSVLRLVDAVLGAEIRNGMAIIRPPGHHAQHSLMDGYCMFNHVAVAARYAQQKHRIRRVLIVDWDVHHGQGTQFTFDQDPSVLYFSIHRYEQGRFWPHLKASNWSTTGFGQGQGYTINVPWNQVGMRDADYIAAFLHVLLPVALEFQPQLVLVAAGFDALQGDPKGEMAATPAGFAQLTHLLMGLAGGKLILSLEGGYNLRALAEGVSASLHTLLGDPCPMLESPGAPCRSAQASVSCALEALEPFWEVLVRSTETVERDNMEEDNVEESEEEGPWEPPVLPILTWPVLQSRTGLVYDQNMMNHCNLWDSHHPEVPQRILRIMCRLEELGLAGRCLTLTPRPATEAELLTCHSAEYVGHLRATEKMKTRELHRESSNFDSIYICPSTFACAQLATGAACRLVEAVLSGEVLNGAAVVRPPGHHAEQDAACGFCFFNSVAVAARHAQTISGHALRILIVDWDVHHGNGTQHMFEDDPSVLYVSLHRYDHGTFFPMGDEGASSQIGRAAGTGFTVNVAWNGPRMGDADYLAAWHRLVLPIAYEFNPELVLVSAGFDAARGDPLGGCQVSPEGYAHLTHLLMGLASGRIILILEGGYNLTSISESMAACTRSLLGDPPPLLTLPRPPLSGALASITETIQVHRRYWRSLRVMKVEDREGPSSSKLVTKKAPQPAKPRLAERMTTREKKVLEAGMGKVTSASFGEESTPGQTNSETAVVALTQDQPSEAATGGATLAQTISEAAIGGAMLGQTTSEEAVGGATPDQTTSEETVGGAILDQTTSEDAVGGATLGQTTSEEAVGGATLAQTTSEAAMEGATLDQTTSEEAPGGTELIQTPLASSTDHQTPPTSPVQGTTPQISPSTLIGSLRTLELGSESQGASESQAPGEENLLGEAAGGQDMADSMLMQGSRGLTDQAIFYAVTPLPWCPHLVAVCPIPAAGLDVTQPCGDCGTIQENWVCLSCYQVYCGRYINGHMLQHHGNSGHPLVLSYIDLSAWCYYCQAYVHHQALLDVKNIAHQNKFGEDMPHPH

HDAC1 [2] = target: T1, HDAC1; test: as above; assay type: biochemical; details: for HDAC1 dose-response data (relative enzyme activity), Fig. 6 + S. Fig. 10: duplicate columns
HDAC3/NCoR2 = target: T3, HDAC3/NCoR2 (Homo sapiens, UniProt O15379); test: as above; assay type: biochemical; details: for HDAC3 dose-response data (relative enzyme activity), Fig. 6 + S. Fig. 10: duplicate columns
T3 construct: HDAC3/NCoR2 (full length, C-terminal His tag, NCoR2 N-terminal GST tag); purchased BPS Bioscience 50003
T3 sequence (O15379 whole entry): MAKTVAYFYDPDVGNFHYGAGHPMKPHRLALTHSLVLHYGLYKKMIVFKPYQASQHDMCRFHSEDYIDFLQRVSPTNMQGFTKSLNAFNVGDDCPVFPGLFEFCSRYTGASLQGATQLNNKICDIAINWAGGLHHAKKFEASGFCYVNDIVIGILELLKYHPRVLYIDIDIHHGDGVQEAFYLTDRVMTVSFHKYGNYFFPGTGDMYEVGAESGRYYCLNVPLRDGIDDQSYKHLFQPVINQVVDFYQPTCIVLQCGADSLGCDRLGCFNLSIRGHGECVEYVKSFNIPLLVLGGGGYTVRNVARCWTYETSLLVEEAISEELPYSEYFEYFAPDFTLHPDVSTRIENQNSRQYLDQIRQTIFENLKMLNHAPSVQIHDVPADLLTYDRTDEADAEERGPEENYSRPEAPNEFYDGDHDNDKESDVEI
T3 sequence (Q9Y618 389-480 partner limits assumed): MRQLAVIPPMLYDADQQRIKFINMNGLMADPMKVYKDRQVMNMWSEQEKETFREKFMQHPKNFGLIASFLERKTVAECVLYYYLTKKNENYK

Compound: CC[C@H](C)[C@H](NC(=O)[C@H](CCC(=O)O)NC(=O)[C@H](CCCNC(=N)N)NC(=O)[C@H](CO)NC(=O)[C@@H](NC(=O)[C@@H](NC(=O)[C@@H](NC(=O)[C@H](CO)NC(=O)[C@H](CCCNC(=N)N)NC(=O)[C@H](CCCCCC(=O)NO)NC(=O)[C@H](CC(N)=O)NC(=O)[C@H](Cc1ccc(O)cc1)NC(=O)[C@H](Cc1c[nH]cn1)NC(C)=O)[C@@H](C)O)[C@@H](C)CC)[C@@H](C)O)C(=O)N[C@@H](CCC(N)=O)C(=O)N[C@H](C(=O)N[C@@H](C)C(=O)N[C@@H](Cc1c[nH]c2ccccc12)C(N)=O)[C@@H](C)O [12a] (Ac-HYN[Asu](NHOH)RSTITSREIQTAW-NH2)
- EC50 (HDAC1 [1]): > 0.0251 µM
- residual enzymatic activity relative to control wells (HDAC6; log[inhibitor(M)] -4.30103): 1.727 and 0.8308
- residual enzymatic activity relative to control wells (HDAC6; log[inhibitor(M)] -5): 2.004 and 3.233
- residual enzymatic activity relative to control wells (HDAC6; log[inhibitor(M)] -5.69897): 5.047 and 6.177
- residual enzymatic activity relative to control wells (HDAC6; log[inhibitor(M)] -6.39794): 15.6412 and 12.824
- residual enzymatic activity relative to control wells (HDAC6; log[inhibitor(M)] -7.09691): 40.6476 and 34.5345
- residual enzymatic activity relative to control wells (HDAC6; log[inhibitor(M)] -7.79588): 71.7467 and 73.0064
- residual enzymatic activity relative to control wells (HDAC6; log[inhibitor(M)] -8.49485): 80.6815 and 89.6415
- residual enzymatic activity relative to control wells (HDAC6; log[inhibitor(M)] -9.19382): 82.3274 and 88.4313
- residual enzymatic activity relative to control wells (HDAC6; log[inhibitor(M)] -9.89279): 83.6621 and 89.4789
- residual enzymatic activity relative to control wells (HDAC6; log[inhibitor(M)] -10.585): 102.86 and 101.255
- Ki (HDAC1 [2]): 0.0271 ± 0.0001 µM
- HDAC1 dose-response data (relative enzyme activity), Fig. 6 + S. Fig. 10 (HDAC1 [2]; log[inhibitor(M)] -4.30103): 0.9347 and 0.662
- HDAC1 dose-response data (relative enzyme activity), Fig. 6 + S. Fig. 10 (HDAC1 [2]; log[inhibitor(M)] -5): 2.038 and 1.878
- HDAC1 dose-response data (relative enzyme activity), Fig. 6 + S. Fig. 10 (HDAC1 [2]; log[inhibitor(M)] -5.69897): 7.98 and 7.034
- HDAC1 dose-response data (relative enzyme activity), Fig. 6 + S. Fig. 10 (HDAC1 [2]; log[inhibitor(M)] -6.39794): 27.0557 and 22.8999
- HDAC1 dose-response data (relative enzyme activity), Fig. 6 + S. Fig. 10 (HDAC1 [2]; log[inhibitor(M)] -7.09691): 60.7171 and 55.9643
- HDAC1 dose-response data (relative enzyme activity), Fig. 6 + S. Fig. 10 (HDAC1 [2]; log[inhibitor(M)] -7.79588): 89.3741 and 84.8138
- HDAC1 dose-response data (relative enzyme activity), Fig. 6 + S. Fig. 10 (HDAC1 [2]; log[inhibitor(M)] -8.49485): 97.3199 and 95.6638
- HDAC1 dose-response data (relative enzyme activity), Fig. 6 + S. Fig. 10 (HDAC1 [2]; log[inhibitor(M)] -9.19382): 101.477 and 97.552
- HDAC1 dose-response data (relative enzyme activity), Fig. 6 + S. Fig. 10 (HDAC1 [2]; log[inhibitor(M)] -9.89279): 101.081 and 96.9441
- HDAC1 dose-response data (relative enzyme activity), Fig. 6 + S. Fig. 10 (HDAC1 [2]; log[inhibitor(M)] -10,5850266520292*, whole line marked with asterisks): 100,220716* and 99,6623992*
- Ki (HDAC3/NCoR2): 0.0106 ± 0.0001 µM
- HDAC3 dose-response data (relative enzyme activity), Fig. 6 + S. Fig. 10 (HDAC3/NCoR2; log[inhibitor(M)] -4.30103): 0.7368 and 0.5682
- HDAC3 dose-response data (relative enzyme activity), Fig. 6 + S. Fig. 10 (HDAC3/NCoR2; log[inhibitor(M)] -5): 1.408 and 1.481
- HDAC3 dose-response data (relative enzyme activity), Fig. 6 + S. Fig. 10 (HDAC3/NCoR2; log[inhibitor(M)] -5.69897): 5.267 and 4.363
